# US20160361314A1, “COMBINATION OF AN ALK INHIBITOR AND A CDK INHIBITOR FOR THE TREATMENT OF CELL PROLIFERATIVE DISEASES” (NOVARTIS AG, priority 2013, published 2016)
# Assays:
# Assay in all cases: Loewe additivity (CHALICE) synergy screen, CellTiter-Glo viability, 7x7 dose matrix
# Format in all cases: cell-based
# Set-up in all cases: key to Max Combo Effect: growth inhibition scale; 100 = stasis
# [1] = tested on: IMR-5 human neuroblastoma cells
# Procedure: (§1) The synergistic interaction of drug combinations were assessed based on the Loewe Additivity Model using Chalice software [CombinatoRx, Cambridge Mass.]). […] 27:659-66. The software compares the response (% inhibition or % reduction of cell viability) of drug treatment from a combination of two agents to the response of the agents acting alone, against the drug-with-itself dose-additive reference model (the Loewe Additivity Model). Deviations from dose additives can be assessed numerically with a “synergy score” which quantifies the overall strength of combination effect. A synergy score >0 indicates a synergistic combination. In order to ensure only strongly synergistic combinations were selected, the acceptance criteria were set at a higher level. Strongly synergistic combinations were defined as having both a synergy score >2, a synergy score that is twice as large as the background (non-synergy) model would predict, and a maximum efficacy of >100, a value equivalent to stasis, as determined from the growth inhibition calculation.
# (§2) After treatment, cell viabilty (quantity of viable cells) for each test mixtures were determined by the CellTiter-Glo® (CTG) luminescent cell viability assay (Promega) described in the Assay section, infra. […] The response to treatment (% reduction of cell viability) was analyzed using Chalice software [CombinatoRx, Cambridge Mass.]). Data evaluation and graph generation were performed using Microsoft Excel software and Chalice software.
# (§3) The combinations were tested in duplicate using a 7×7 dose matrix block in 1536 well format with a cell proliferation readout as described in the Assay section infra.
# (§4) All synergy calculations were performed using CHALICE software package from Zalicus and potential synergistic interactions between compound combinations were assessed using the Excess Inhibition 2D matrix according to the Loewe additivity model and were reported as synergy score (Table 10) (Lehar et al). Strongly synergistic combination were identified as having both (1) a synergy score greater than 2, a synergy score that is twice as large as the background (non-synergy) model would predict, and (2) a maximum efficacy of >100, a value roughly equivalent to stasis, as determined from the growth inhibition calculation.
# (§5) Cell viability were determined by measuring cellular ATP content using the CellTiter-Glo® (CTG) luminescent cell viability assay (Promega). […] Reduced and enhanced luminescent signal values (responses) were calculated relative to untreated (control) cells, and the calculated signal value proportional to the cell viability.
# (§6) Synergistic combinations were identified based on the Loewe Addivity Model. To measure the effects of drug combinations on the cell viability, cells from the 20 cell lines listed in Table 1 above were seeded into 1536-well assay plates at a density 300 cells per well in a 7 μL final volume and incubated at 37° C. overnight in a GNF Systems incubator with 95% RH and 5% CO2.
# (§7) A six-point dose response curve for the test compounds were prepared in a 384 well ECHO compatible source plate (Labcyte P-05525) with 3-fold serial dilution series. For example, for a six-point dose response curve and a top compound concentration of 5 mM, the concentration of the compounds in the source well were 5 mM, 1.67 mM, 0.56 mM, 0.19 mM, 0.06 mM and 0.02 mM.
# (§8) Approximately 18 hours after plating, compound combinations were generated on the fly by transferring 7.5 nL of compound from the pre-diluted source plates using the Labcyte ECHO555 integrated onto the ACP-1 system with replicate plates per cell line; the final DMSO concentration per well was 0.2%. It is noted that the total volume in the wells was 7 μL.
# (§9) The well at the intersection of the first column and first row which received no compound was dosed with 2×7.5 nL of DMSO and served as control.
# [2] = tested on: SH-SY5Y human neuroblastoma cells; conditions: SH-SY5Y (F1174L)
# Procedure: as §1, §2, §3, §4, §5, §6, §7, §8, §9
# [3] = tested on: NB-1691 human neuroblastoma cells; conditions: NB-1691 (WT); for Max Combo Effect: in % (unit assumed)
# Procedure: as §1, §2, §3, §4, §5, §6, §7, §8, §9
# [4] = tested on: NB-SD human neuroblastoma cells; conditions: NB-SD (F1174L); for Max Combo Effect: in % (unit assumed)
# Procedure: as §1, §2, §3, §4, §5, §6, §7, §8, §9
# [5] = tested on: CHP-134 human neuroblastoma cells; conditions: for Max Combo Effect: in % (unit assumed)
# Procedure: as §1, §2, §3, §4, §5, §6, §7, §8, §9
# [6] = tested on: NLF human neuroblastoma cells; conditions: NLF (WT)
# Procedure: as §1, §2, §3, §4, §5, §6, §7, §8, §9
# [7] = tested on: SK-N-FI human neuroblastoma cells; conditions: SK-N-FI (WT); for Max Combo Effect: in % (unit assumed)
# Procedure: as §1, §2, §3, §4, §5, §6, §7, §8, §9
# [8] = tested on: KELLY human neuroblastoma cells; conditions: KELLY (F1174L)
# Procedure: as §1, §2, §3, §4, §5, §6, §7, §8, §9
# [9] = tested on: SK-N-AS human neuroblastoma cells; conditions: SK-N-AS (WT); for Max Combo Effect: in % (unit assumed)
# Procedure: as §1, §2, §3, §4, §5, §6, §7, §8, §9
# [10] = tested on: SK-N-BE(2) human neuroblastoma cells; conditions: SK-N-BE(2) (WT)
# Procedure: as §1, §2, §3, §4, §5, §6, §7, §8, §9
# [11] = tested on: NB-1 human neuroblastoma cells; conditions: for Max Combo Effect: in % (unit assumed)
# Procedure: as §1, §2, §3, §4, §5, §6, §7, §8, §9
# [12] = tested on: LAN-5 human neuroblastoma cells; conditions: LAN-5 (R1275Q)
# Procedure: as §1, §2, §3, §4, §5, §6, §7, §8, §9
smiles,measurement,setting,value
"C[C@@H](Oc1cc(-c2cnn(C3CCNCC3)c2)cnc1N)c1c(Cl)ccc(F)c1Cl [Compound A3, (R)-3-(1-(2,6-dichloro-3-fluorophenyl)ethoxy)-5-(1-(piperidin-4-yl)-1H-pyrazol-4-yl)pyridin-2-amine, reference compound]",Max Combo Effect,"[1]; IMR-5 (WT), Table 3",99.95
same,Synergy score (Mean),"[1]; IMR-5 (WT), Table 3",0.73
same,Max Combo Effect,[2]; Table 3,141.61
same,Synergy score (Mean),[2]; Table 3,0.98
same,Synergy score (Mean),[3]; Table 3,0.21
same,Max Combo Effect,[3]; Table 3,36.53
same,Synergy score (Mean),[4]; Table 3,0.84
same,Max Combo Effect,[4]; Table 3,75.54
same,Synergy score (Mean),"[5]; CHP-134 (WT), Table 3",0.02
same,Max Combo Effect,"[5]; CHP-134 (WT), Table 3",10.05
same,Max Combo Effect,[6]; Table 3,29.10
same,Synergy score (Mean),[6]; Table 3,0.08
same,Max Combo Effect,[7]; Table 3,20.37
same,Max Combo Effect,[8]; Table 3,134.74
same,Synergy score (Mean),[8]; Table 3,0.47
same,Synergy score (Mean),[9]; Table 3,0.19
same,Max Combo Effect,[9]; Table 3,55.78
same,Max Combo Effect,[10]; Table 3,10.76
same,Synergy score (Mean),[10]; Table 3,0.02
"Cc1cc(Nc2ncc(Cl)c(Nc3ccccc3S(=O)(=O)C(C)C)n2)c(OC(C)C)cc1C1CCNCC1 [Compound A1, 5-chloro-N2-(2-isopropoxy-5-methyl-4-(piperidin-4-yl)phenyl)-N4-[2-(propane-2-sulfonyl)-phenyl]-pyrimidine-2,4-diamine]",Synergy score (Mean),"[11]; NB-1 (WT Amp), Table 2",1.607
same,Max Combo Effect,"[11]; NB-1 (WT Amp), Table 2",181.9
same,Max Combo Effect,"[1]; IMR-5 (ALK WT), Table 2",80.4
same,Synergy score (Mean),"[1]; IMR-5 (ALK WT), Table 2",0.884
same,Max Combo Effect,[2]; Table 2,91.5
same,Synergy score (Mean),[2]; Table 2,0.638
same,Synergy score (Mean),[3]; Table 2,0.760
same,Max Combo Effect,[3]; Table 2,111.9
same,Synergy score (Mean),[4]; Table 2,0.908
same,Max Combo Effect,[4]; Table 2,141.5
same,Synergy score (Mean),"[5]; CHP-134 (ALK WT), Table 2",0.223
same,Max Combo Effect,"[5]; CHP-134 (ALK WT), Table 2",26.1
same,Max Combo Effect,[6]; Table 2,27.1
same,Synergy score (Mean),[6]; Table 2,0.152
same,Synergy score (Mean),[7]; Table 2,1.135
same,Max Combo Effect,[7]; Table 2,59.7
same,Max Combo Effect,[12]; Table 2,166.1
same,Synergy score (Mean),[12]; Table 2,1.731
same,Max Combo Effect,[8]; Table 2,97.7
same,Synergy score (Mean),[8]; Table 2,0.900
same,Synergy score (Mean),[9]; Table 2,0.374
same,Max Combo Effect,[9]; Table 2,42.4
same,Max Combo Effect,[10]; Table 2,25.2
same,Synergy score (Mean),[10]; Table 2,0.246
"Cc1cc(Nc2nc(Nc3ccccc3S(=O)(=O)C(C)C)c3cn[nH]c3n2)c(OC(C)C)cc1C1CCN(C)CC1 [Compound A2, N6-(2-isopropoxy-5-methyl-4-(1-methylpiperidin-4-yl)phenyl)-N4-(2-(isopropylsulfonyl)phenyl)-1H-pyrazolo[3,4-d]pyrimidine-4,6-diamine]",Synergy score (Mean),"[11]; NB-1 (WT_Amp), Table 3",identified as synergistic
same,Max Combo Effect,"[11]; NB-1 (WT_Amp), Table 3",193.34
same,Synergy score (Mean),"[11]; NB-1 (WT_Amp), Table 3, listed as Cmpd A2 Self Cross",2.97
same,Max Combo Effect,"[1]; IMR-5 (WT), Table 3",179.71
same,Synergy score (Mean),"[1]; IMR-5 (WT), Table 3",0.23
same,Synergy score (Mean),[3]; Table 3,0.97
same,Max Combo Effect,[3]; Table 3,196.56
same,Synergy score (Mean),[4]; Table 3,1.38
same,Max Combo Effect,[4]; Table 3,195.92
same,Synergy score (Mean),"[5]; CHP-134 (WT), Table 3",0.10
same,Max Combo Effect,"[5]; CHP-134 (WT), Table 3",180.10
same,Max Combo Effect,[6]; Table 3,183.68
same,Synergy score (Mean),[6]; Table 3,0.63
same,Synergy score (Mean),[7]; Table 3,0.65
same,Max Combo Effect,[7]; Table 3,161.68
same,Max Combo Effect,[12]; Table 3,196.81
same,Synergy score (Mean),[12]; Table 3,0.87
same,Max Combo Effect,[8]; Table 3,191.61
same,Synergy score (Mean),[8]; Table 3,0.64
same,Synergy score (Mean),[9]; Table 3,0.20
same,Max Combo Effect,[9]; Table 3,61.99
same,Max Combo Effect,[10]; Table 3,177.26
same,Synergy score (Mean),[10]; Table 3,0.47
